Measurements from paper PMC6533283, “Deciphering the regulatory and catalytic mechanisms of an unusual SAM-dependent enzyme” (Signal Transduction and Targeted Therapy, 2019).
Values joined by “and” are separate entries in the source; they are usually repeats but may differ in a detail not shown here. Equal entries are not always repeated.

Experiments:
LepI [1] = target: T1, LepI (Aspergillus flavus, UniProt B8NJH3); test: HPLC assay of retro-Claisen rearrangement of compound […]; assay type: biochemical; settings: read-out: % inhibition at 0.5 mM
T1 construct: codon-optimized gene in pET-15b (NdeI/XhoI), N-terminal His tag, E. coli BL21(DE3); homodimer; SAM and MTA partly copurify

LepI [2] = target: T1, LepI; test: HPLC assay of retro-Claisen rearrangement of compound […], rescue of SAH/MTA inhibition; assay type: biochemical; settings: 1 mM SI with 1 mM SAH or 1 mM MTA, 300 nM LepI, pH 8.0, 30 °C; SAM analogue, activator
[3] = target: the molecule itself; test: SEC; analytical gel filtration, Superdex 200 Increase 10/30 GL, protein at 1 mg/mL, 20 mM Na2HPO4, 50 mM NaCl, pH 8.0; sizes by standard protein markers
[4] = target: the molecule itself; test: crystal structure; LepI crystals grown in 0.15 M bis-Tris pH 7.0, 40% PEG 400; structures with SAM/MTA (1.7 Å), SAH (2.7 Å) and SAM/compound 1 (2.2 Å); two molecules in the asymmetric unit

CSC[C@H]1O[C@@H](n2cnc3c(N)ncnc32)[C@H](O)[C@@H]1O [MTA]
inhibition at 500 µM (LepI [1]): 30%

Nc1ncnc2c1ncn2[C@@H]1O[C@H](C[C@@H](N)CC[C@H](N)C(=O)O)[C@@H](O)[C@H]1O [Sinefungin]
HPLC assay of retro-Claisen rearrangement of compound 1, rescue of SAH/MTA inhib (LepI [2]): both SAM and SI completely rescued LepI activity for retro-Claisen rearrangement

B1: LepI-Δ15 (domain or fragment, Aspergillus flavus, UniProt B8NJH3 16-387, looked up)
chain: QSTDQFGRAEINDALRELQYSLETPFDTVMRMSLDTCQVAVARIGSDLGLFKHLSQCASPQSAEELADHLGCGRELMSRLLRYMASVRMVQQTDDIKYISSNITQTLAVPGLEAGMRHAFENLWPVLMALPDFLAERKYPDIVDAKDTAFQKAFNTDQDCFHWLATQPTRIANFKVLLTDERTPNFLSTFPLEKELGSWSAEPEKALFVDIGGGMGHACIRLREKYPNQPGRVILQDLPPVLQAAQATLPLSGIESMPHNFHTPQPVQGAKFYFLRLILRDFPDHQALEILQNIVPAMDAESRIVIDDGVPPEKGARWAETGTDICIMSALGSKERTQRQWEELAAKAGLQLQALYQYTWPVVNAAMVFSLQ
notes: LepI of Aspergillus flavus with an N-terminal deletion (Δ15, removes helix α1); N-terminal truncation designed from the structure to disrupt dimerization; also called α1 single deletion of LepI; α1 single deleted enzyme; source: E. coli, purified as described for LepI
stoichiometry N [3]: 2 and 4

B2: leporin biosynthesis enzyme LepI (enzyme, Aspergillus flavus)
chain: METVAAIKTLIQQLAQSTDQFGRAEINDALRELQYSLETPFDTVMRMSLDTCQVAVARIGSDLGLFKHLSQCASPQSAEELADHLGCGRELMSRLLRYMASVRMVQQTDDIKYISSNITQTLAVPGLEAGMRHAFENLWPVLMALPDFLAERKYPDIVDAKDTAFQKAFNTDQDCFHWLATQPTRIANFKVLLTDERTPNFLSTFPLEKELGSWSAEPEKALFVDIGGGMGHACIRLREKYPNQPGRVILQDLPPVLQAAQATLPLSGIESMPHNFHTPQPVQGAKFYFLRLILRDFPDHQALEILQNIVPAMDAESRIVIDDGVPPEKGARWAETGTDICIMSALGSKERTQRQWEELAAKAGLQLQALYQYTWPVVNAAMVFSLQ
notes: LepI, SAM-dependent enzyme of the leporin biosynthesis gene cluster of Aspergillus flavus; codon-optimized gene in pET-15b between NdeI and XhoI; Homodimer in the asymmetric unit of the crystal; Endogenous SAM and MTA co-purified with the protein; A selenomethionine form was used for phasing; also called wild-type (WT) LepI; native-LepI; source: E. coli BL21 (DE3), purified (Ni resin, …)
binding result [4]: binds
